Reference: patent publication US7618787B2, “Method of screening compound capable of accelerating or inhibiting apoptosis, apoptosis accelarator and apoptosis inhibitor” (Hisamitsu Pharmaceutical Co., Inc., priority 2004, dated 2009)

Key:
L929 cells = test: Immunoblot of nuclear and cytoplasmic fractions of L929 cells; assay type: cell-based, mouse; settings: L929 cells (FIG. 9)
Procedure: (§1) To prepare nuclear and cytoplasmic extracts, cells were washed with ice-cold PBS and suspended in lysis buffer (pH 7.5; which contained 10 mM Tris-Cl, 1 mM EDTA, 0.5% Nonidet P-40 (NP-40), 1 mM PMSF, and protease inhibitor mix (Sigma)). The suspended cells were incubated at 4° C. for 30 minutes and centrifuged at 5000 rpm for 10 minutes to collect soluble fractions (which were used as cytoplasmic extracts). Insoluble fractions were washed with lysis buffer and dissolved in 1×Laemmli SDS-sample buffer (pH 6.8; which contained 62.5 mM Tris-Cl, 2% SDS, 2% β-mercaptoethanol, and 0.01% bromophenol blue) to collect nuclear extracts. The nuclear and cytoplasmic fractions were subjected to immunoblot analysis using an anti-lamin B monoclonal (Ab-1; Oncogene Research Products) or anti-α-tubulin monoclonal (DM1A; Cell Signaling Technology) antibody.
(§2) As described above, the amount of nuclear transactivating p65 subunit was not changed in U2OS cells treated with cisplatin. […] U2OS cells transfected with a NF-κB reporter plasmid were treated with cisplatin and assayed for their luciferase activities. […] L929 cells have been used widely for examining the TNF-α-dependent activation of NF-κB.

NF-κB [1] = test: NF-κB reporter activation in L929 cells; assay type: cell-based, mouse; settings: L929 cells (FIG. 8)
Procedure: as §2

U2OS cells [2] = test: Cell survival assay (MTT) of cisplatin-exposed cells; assay type: cell-based, human; settings: cisplatin 20 μM, time course (FIG. 1)
Procedure: U2OS cells were seeded at a density of 5×10^3 cells/well to a 96-well tissue culture dish supplemented with 100 μL of complete medium, and then allowed to adhere thereto overnight. A cisplatin stock solution was filtered and sterilized with a filter of 0.45 μm in pore size and diluted with phosphate-buffered saline (PBS). Cisplatin was added at the final concentration of 20 μM to the cultures, followed by cell viability assay. The viability was assayed by a modified 3-(4,5-dimethylthiazol-2-yl)-2,5-diphenyl-tetrazolium bromide (MTT) assay at given time points after the cisplatin addition. The MTT assay was performed by adding 10 μL of MTT solution to each well and incubating the cultures at 37° C. for 1 hour. A microplate reader (Model 450; Bio-Rad) was used to measure the absorbance of each well at 570 nm.

U2OS cells [3] = test: RT-PCR analysis of RNA from U2OS cells treated with cisplatin; assay type: cell-based, human
Procedure: Total RNA was extracted from U2OS cells exposed to cisplatin (final concentration: 20 μM) by use of RNeasy Mini Kit (Qiagen) according to the manufacturer's protocol. Reverse transcription reaction was performed by mixing the total RNA (5 μg) with SuperScript II reverse transcriptase (Invitrogen) and random primers and incubating the mixture at 42° C. for 1 hour. After the completion of the reaction, cDNA was diluted with water and amplified with 15 μL of reaction solution (which contained 100 μM of each deoxynucleoside triphosphate, 1×PCR buffer, 1 μM of each primer, and 0.2 units of rTaq DNA polymerase (Takara Bio)). GAPDH expression was assayed and used as an internal standard. The PCR amplification products were separated by electrophoresis with 1.5% agarose gel in TAE buffer (40 mM Tris-Cl, 1 mM EDTA) and visualized with ethidium bromide (post-staining).

NF-κB [4] = test: NF-κB reporter luciferase assay in U2OS cells; assay type: cell-based, human; settings: U2OS cells transfected with NF-κB reporter plasmid (FIG. 7)
Procedure: as §2

U2OS cells [5] = test: Immunoblot of cell lysates of U2OS cells treated with cisplatin; assay type: cell-based, human
Procedure: Cells were transiently transfected with a total of 2 μg of expression plasmids. After 48 hours of the transfection, the cells were washed with ice-cold PBS and suspended in lysis buffer (pH 8.0; which contained 25 mM Tris-Cl, 137 mM sodium chloride, 1% Triton X-100, 1 mM phenylmethylsulfonyl fluoride (PMSF), and protease inhibitor mix (Roche Molecular Biochemicals)), followed by brief sonication. After centrifugation at 15000 rpm for 10 minutes, the supernatant was collected and assayed for protein concentrations by the Bradford assay (Bio-Rad). Equal amounts of lysates (protein amount: 50 μg) from the whole cells were denatured by boiling in Laemmli SDS-sample buffer, then separated on 10% SDS-polyacrylamide gel (SDS-PAGE), and transferred at room temperature for 1 hour to polyvinylidene difluoride (PVDF) membranes (Immobilon-P; Millipore) in Tris-glycine buffer containing 10% methanol. The membranes were blocked at room temperature for 1 hour with Tris-buffered saline (TBS-T) containing 5% skim milk and 0.1% Tween 20. Then, the membranes were reacted with an anti-FLAG monoclonal (M2; Sigma), anti-HA monoclonal (12CA5; Roche Molecular Biochemicals), anti-p73 monoclonal (Ab-4; NeoMarkers), anti-p53 monoclonal (DO-1; Oncogene Research Products), anti-Bax monoclonal (6A7; eBioscience), anti-IKK-α polyclonal (M-280; Santa Cruz Biotechnology), anti-IKK-β polyclonal (H-470; Santa Cruz Biotechnology), anti-IKK-γ polyclonal (FL-417; Santa Cruz Biotechnology), anti-p65 polyclonal (C-20; Santa Cruz Biotechnology), anti-IκB-α polyclonal (C-21; Santa Cruz Biotechnology), anti-actin polyclonal (20-33, Sigma), or anti p21^WAF1 polyclonal (H-164; Santa Cruz Biotechnology) antibody used as a primary antibody. After the reaction with the primary antibody, the membranes were reacted at room temperature for 1 hour with a horseradish peroxidase (HRP)-labeled goat anti-mouse or anti-rabbit secondary antibody (Cell Signaling Technologies) diluted 2000-fold in TBS-T. Immunoreactive proteins were finally visualized by use of an enhanced chemiluminescence system (ECL; Amersham Pharmacia Biotech) according to the manufacturer's instruction.

U2OS cells [6] = test: Immunoblot of nuclear and cytoplasmic fractions of U2OS cells treated with cisplatin; assay type: cell-based, human
Procedure: as §1, with “antibody. Nuclear and cytoplasmic extracts were prepared from cisplatin-exposed or untreated U2OS cells and subjected to immunoblot with a given antibody. The purity of the nuclear and cytoplasmic fractions was confirmed by immunoblot using anti-lamin B and anti-α-tubulin antibodies, respectively. In agreement with the previously reported results, IKK-α was localized in both the nucleus and the cytoplasm, whereas IKK-β was largely expressed in the cytoplasm (FIG. 4). The amounts of IKK-α, IKK-β, and IKK-γ in the cytoplasm were not changed regardless of cisplatin treatment.” for “antibody.”

TNF-α
nuclear accumulation of p65 (L929 cells): remarkably accumulated p65 in the nucleus
NF-κB-dependent transcriptional activation (NF-κB [1]): NF-κB-dependent transcriptional activation was observed after 2 hours

N.N.[Cl][Pt][Cl] [cisplatin]
cell viability / apoptosis of U2OS cells (U2OS cells [2]): underwent apoptosis in a time-dependent manner
expression of IKK-α and IKK-β mRNAs (U2OS cells [3]; cisplatin 20 μM (FIG. 3)): not changed
expression of p53 and p73α mRNAs (U2OS cells [3]; cisplatin 20 μM (FIG. 3)): not induced
expression level of IKK-γ mRNA (U2OS cells [3]; cisplatin 20 μM, time-dependent (FIG. 3)): remarkable increase
NF-κB-dependent transcriptional activation (NF-κB [4]): did not enhance NF-κB-dependent transcriptional activation
IKK-α protein level (U2OS cells [5]; 12 to 36 hours after cisplatin exposure (FIG. 2)): remarkably accumulated IKK-α
IKK-γ (NEMO) protein level (U2OS cells [5]; after 12 hours of cisplatin treatment): transiently increased
p53 and p73α protein levels (U2OS cells [5]; cisplatin exposure (FIG. 2)): remarkably induced at protein levels
amount of IKK-β (U2OS cells [5]; cisplatin treatment): hardly changed the amount of IKK-β
phosphorylated form of IκB-α (U2OS cells [5]; cisplatin treatment): remarkably increased the phosphorylated form of IκB-α
cytoplasmic IκB-α (U2OS cells [6]; U2OS cytoplasmic fraction (FIG. 4)): decreased in a time-dependent manner
nuclear accumulation of IKK-α (U2OS cells [6]; U2OS nuclear fraction (FIG. 4)): remarkably accumulated IKK-α in the nucleus in a time-dependent manner
nuclear accumulation of p65-NF-κB subunit (RelA) (U2OS cells [6]; U2OS nuclear fraction (FIG. 4)): almost no effect on the nuclear accumulation of p65-NF-κB subunit
